This assay is filed under the species Mus musculus. Description: Compound was tested in vitro for its immunosuppressive potential using mouse mixed lymphocyte reaction (MLR_M) with relative to Cyclophilin A. It is filed as functional.

`C/C=C/C[C@@H](C)[C@@H](O)[C@H]1C(=O)N[C@@H](C(O)Cc2ccccc2)C(=O)N(C)CC(=O)N(C)[C@@H](CC(C)C)C(=O)N[C@@H](C(C)C)C(=O)N(C)[C@@H](CC(C)C)C(=O)N[C@@H](C)C(=O)N[C@H](C)C(=O)N(C)[C@@H](CC(C)C)C(=O)N(C)[C@@H](CC(C)C)C(=O)N(C)[C@@H](C(C)C)C(=O)N1C` (stereo partly specified) came in with a rIC50 of 360.

These data come from ChEMBL document CHEMBL1128112, “The Abu-pocket paradox of the cyclophilin a / cyclosporin a interaction” (1995).
